Consider 20 compounds from patent US20240032539A1, “CONCENTRATED FUNGICIDE COMPOSITION OF PROTHIOCONAZOLE AND PICOXYTROBIN” (priority 2020, published 2024).

For series [1] the following is noted: cited from earlier work; for Classification (dissociation) / Dissociation Constant - Pka: triazole fungicides, Table 01; for ionization: strobirulins, Table 2.
The conditions of series [2]: cited from earlier work; for Log Know (P Log) / Know P: triazole fungicides, Table 01; for Know or P / Log Know or Log P: strobirulins, Table 2.
Series [3] can be described thus: Eiq risk indicator of pesticides (Kovach et al.; Eiq Calculator). The conditions noted are these: for Total Eiq (% of picoxystrobin): as percentage of the picoxystrobin value. How it is done: With all this complexity, the question that arises is: is there any risk indicator for the use of pesticides that is accurate, simple to use and easily understandable? So far, the best available option is the Eiq proposed by Kovach et al. (1992).
This indicator is calculated from a total of […] characteristics of pesticides: dermal toxicity, chronic toxicity, systemicity, toxicity to fish, leaching potential, potential for movement on the soil surface, toxicity to birds, time to degrade 50% in soil, toxicity to bees, toxicity to beneficial arthropods and time to degrade 50% on plant surface.
The total Eiq is characteristic of each active ingredient and corresponds to the average of three other more specific coefficients calculated from subgroups of the aforementioned characteristics: Eiq Ecological, Eiq for the worker and Eiq for the consumer.
The Eiq values are dimensionless and can be determined for 1 kg of the active ingredient (to compare the safety of different compounds) or per hectare treated (considers the variable effective dose of use). There are applications that do the calculation automatically such as Eiq Calculator (Cornell—CALS, 2018).

For series [4] the following is noted: cited from earlier work; for Solubility in water: triazole fungicides, Table 01; for Solubility-water: strobirulins, Table 2.
For series [5] the following is noted: cited from earlier work; for Consumer Eiq / Ecological Eiq / Total Eiq / Worker Eiq: for 1 kg of the compound; for Total Equi: per kg of compound, Table 2.
The subject of series [6] is complex of diseases in soybean. The series is described as follows: LD50 of strobilurins, populations of different locations and dates of collection. As to conditions: mean over locations and dates of collection. As for the experimental part:
Additional tests were conducted with populations with extreme values to verify the correlation of ED50 values with field efficiency and confirm this elevation in values. The same tests were installed in order to compare the most used strobilurins in soybean crops.
All estimated LD50 values were below 1 μg. mL−1, regardless of product, location and date of collection.
That said, it can be stated that the combination of triazole with greater intrinsic activity to strobilurin with the same characteristics makes OFA-T 0143/17 (prothioconazole+picoxystrobin) an excellent tool to assist in the integrated management of diseases in the soybean crop.

The conditions of series [7]: strobirulins, Table 2; cited from earlier work.

The structures appear in SMILES notation. Read-outs that look alike come from different tables or passages of the source.

`Fc1ccc([C@]2(Cn3cncn3)O[C@H]2c2ccccc2Cl)cc1` (racemic) [epoxiconazole]: the “Classification (dissociation)” value in series [1] is recorded as “No dissociation”. Further, the “Log Know (P Log)” value in series [2] is 3.3.

`OC(Cc1ccccc1Cl)(Cn1nc[nH]c1=S)C1(Cl)CC1` (racemic) [prothioconazole, (RS)-2-[2-(1-chlorocyclopropyl)-3-(2-chlorophenyl)-2-hydroxypropyl]-2,4-dihydro1,2,4-triazole-3-thione]: in series [3] (dose of 96 g a.i./ha), the “Consumer Eiq” value is 1.008, the “Ecological Eiq” value is 5.33, the “Total Eiq” value is 2.58 and the “Worker Eiq” value is listed as 1.33. In series [4], the Solubility in water was 22.5 mg/L or PPM. In series [5], the “Consumer Eiq” value is listed as 10.5, the “Ecological Eiq” value is 55.5, the “Total Eiq” value was 26.9 and the “Worker Eiq” value is reported as 13.9. In series [1], the “Classification (dissociation)” value is “Weak acid” and the “Dissociation Constant - Pka” value was 6.9. In series [2], the “Know P” value was 100 and the “Log Know (P Log)” value is reported as 2.

Take `Clc1ccc(C2(Cn3cncn3)OCCO2)c(Cl)c1` [azaconazole]: in series [4], the Solubility in water is given as 300 mg/L or PPM. In series [1], the “Classification (dissociation)” value is given as “Very weak base” and the “Dissociation Constant - Pka” value is reported as 3. In series [2], the “Know P” value is reported as 229.1 and the “Log Know (P Log)” value is 2.36.

On to `CO/C=C(/C(=O)OC)c1ccccc1Oc1cc(Oc2ccccc2C#N)ncn1` [azoxystrobin], for which, in series [3] (Units/Kg), the “Total Eiq (% of picoxystrobin)” value is given as 196.6%. Besides, the “Total Eiq (% of picoxystrobin)” value in series [3] (Units/Mol) was 215.7%. In series [3] (per Mol of compound, Table 2), the “Total Eiq” value is given as 9.3 Units/Mol. Moreover, in series [6], the LD50 mean is 0.23 µg/mL. The Solubility-water in series [4] is reported as 6.7 mg/L or PPM. Moreover, the “Total Equi” value in series [5] is on record as 23.0 Units/Kg. Further, the RL50 in plants in series [7] was 7.0 days. Besides, the ionization result in series [1] is on record as “Non-ionizable”. In series [2], the “Know or P” value is listed as 316 dimensionless and the “Log Know or Log P” value is reported as 2.5 dimensionless.

Turning to `Clc1ccc(C2(Cn3cncn3)CC(Br)CO2)c(Cl)c1` (stereo not drawn) [bromuconazole], the Solubility in water in series [4] was 48.3 mg/L or PPM. In series [1], the “Classification (dissociation)” value was “Strong acid” and the “Dissociation Constant - Pka” value was 2.75. Besides, the “Log Know (P Log)” value in series [2] was 3.24.

Consider `CC(C1CC1)C(O)(Cn1cncn1)c1ccc(Cl)cc1` (stereo not drawn) [cyproconazole], for which, in series [1], the “Classification (dissociation)” value was “No dissociation”. Further, in series [2], the “Log Know (P Log)” value is 3.09.

Turning to `CC1COC(Cn2cncn2)(c2ccc(Oc3ccc(Cl)cc3)cc2Cl)O1` (stereo not drawn) [diphenococonazole], in series [1], the “Classification (dissociation)” value was “Strong acid” and the “Dissociation Constant - Pka” value is reported as 1.07. Moreover, the “Log Know (P Log)” value in series [2] was 4.36.

`N#CC(CCc1ccc(Cl)cc1)(Cn1cncn1)c1ccccc1` (stereo not drawn) [fenbuconazole]: the Solubility in water in series [4] is on record as 2.47 mg/L or PPM. Further, in series [1], the “Classification (dissociation)” value is on record as “No dissociation”. In series [2], the “Log Know (P Log)” value is reported as 3.79.

On to `O=c1c2cc(F)ccc2nc(-n2cncn2)n1-c1ccc(Cl)cc1Cl` [fluquinconazole], for which, in series [1], the “Classification (dissociation)” value is given as “Strong acid” and the “Dissociation Constant - Pka” value is 0.9. Also, the “Log Know (P Log)” value in series [2] is on record as 3.24.

As for `CCCCC(O)(Cn1cncn1)c1ccc(Cl)cc1Cl` (stereo not drawn) [hexaconazole], in series [1], the “Classification (dissociation)” value was “Strong acid”. Besides, the “Log Know (P Log)” value in series [2] is recorded as 3.9.

Consider `CC1(C)CCC(Cc2ccc(Cl)cc2)C1(O)Cn1cncn1` (stereo not drawn) [metconazole], for which the “Classification (dissociation)” value in series [1] was “Very weak acid”. Moreover, the “Log Know (P Log)” value in series [2] is reported as 3.85.

Turning to `CCCC(Cn1cncn1)c1ccc(Cl)cc1Cl` (stereo not drawn) [penconazole], in series [1], the “Classification (dissociation)” value was “Very weak base” and the “Dissociation Constant - Pka” value is on record as 1.51.

On to `CO/C=C(/C(=O)OC)c1ccccc1COc1cccc(C(F)(F)F)n1` [picoxystrobin, (E)-3-methoxy-2-{2-[6-(trifluoromethyl)-2-pyridyloxymethyl]phenyl}methyl acrylate], for which the “Total Eiq (% of picoxystrobin)” value in series [3] (Units/Kg) is 100.0%. The “Total Eiq (% of picoxystrobin)” value in series [3] (Units/Mol) is 100.0%. In series [3] (dose of 80g a.i./ha), the “Consumer Eiq” value is given as 0.408, the “Ecological Eiq” value was 2.00, the “Total Eiq” value is recorded as 0.936 and the “Worker Eiq” value is 0.408. Further, in series [3] (per Mol of compound, Table 2), the “Total Eiq” value is listed as 4.3 Units/Mol. For the same compound, in series [3] (per kg), the “average reduction of risks for consumers, workers and the environment versus azoxystrobin” value is 49.13%; the “average reduction of risks for consumers, workers and the environment versus pyraclostrobin” value is on record as 49.35%; the “average reduction of risks for consumers, workers and the environment versus trifloxystrobin” value was 54.12%; the “total Eiq value expressed as a percentage of the value observed for azoxystrobin” value was 50.87%. For the same compound, in series [3] (per kg), the “total Eiq value expressed as a percentage of the value observed for pyraclostrobin” value is on record as 50.65% and the “total Eiq value expressed as a percentage of the value observed for trifloxystrobin” value was 45.88%. In series [6], the LD50 mean was determined as 0.18 µg/mL. In addition, the Solubility-water in series [4] is on record as 3.1 mg/L or PPM. In series [5], the “Consumer Eiq” value was 5.1, the “Ecological Eiq” value is listed as 25.0, the “Total Eiq” value is reported as 11.7 and the “Worker Eiq” value was 5.1. Besides, in series [5], the “Total Equi” value is given as 11.7 Units/Kg. In addition, the RL50 in plants in series [7] is 6.9 days. Also, the ionization entry in series [1] is “Non-ionizable”. In addition, in series [2], the “Know or P” value was 3981 dimensionless and the “Log Know or Log P” value was 3.6 dimensionless.

Turning to `CCCC1COC(Cn2cncn2)(c2ccc(Cl)cc2Cl)O1` (stereo not drawn) [propiconazole], in series [4], the Solubility in water is recorded as 150 mg/L or PPM. Besides, in series [1], the “Classification (dissociation)” value was “Very weak base” and the “Dissociation Constant - Pka” value is reported as 1.09. In addition, the “Log Know (P Log)” value in series [2] is recorded as 3.72.

Consider `COC(=O)N(OC)c1ccccc1COc1ccn(-c2ccc(Cl)cc2)n1` [pyraclostrobin], for which the “Total Eiq (% of picoxystrobin)” value in series [3] (Units/Kg) is recorded as 197.4%; in series [3] (Units/Mol), 208.5%. Moreover, the “Total Eiq” value in series [3] (per Mol of compound, Table 2) is 9.0 Units/Mol. The LD50 mean in series [6] stood at 0.21 µg/mL. In addition, the Solubility-water in series [4] is on record as 1.5 mg/L or PPM. Besides, the “Total Equi” value in series [5] is listed as 23.1 Units/Kg. In addition, the RL50 in plants in series [7] is 4.7 days. Moreover, in series [1], the ionization entry is given as “Non-ionizable”. Further, the “Know or P” value in series [2] is on record as 9772 dimensionless.

As for `CC(C)(C)C(O)(CCc1ccc(Cl)cc1)Cn1cncn1` (stereo not drawn) [tebuconazole], the “Classification (dissociation)” value in series [1] is “Weak acid”. For the same compound, the “Log Know (P Log)” value in series [2] is 3.7.

Turning to `FC(F)C(F)(F)OCC(Cn1cncn1)c1ccc(Cl)cc1Cl` (stereo not drawn) [tetraconazole], the “Classification (dissociation)” value in series [1] is recorded as “Strong acid”. Moreover, the “Log Know (P Log)” value in series [2] is listed as 3.56.

With `CON=C(C(=O)OC)c1ccccc1CON=C(C)c1cccc(C(F)(F)F)c1` [trifloxystrobin], the “Total Equi” value in series [3] is on record as 10.4 Units/Mol. Also, the “more Eiq units required so that 10 g of the compound remained in the plant matrix, versus picoxystrobin” value in series [3] (14 days) was 35.54%. Moreover, the ionization entry in series [1] was “Non-ionizable”. In addition, in series [2], the “Know or P” value is given as 31623 dimensionless.

For the compound `CC1(C)CCC(=Cc2ccc(Cl)cc2)C1(O)Cn1cncn1` (stereo not drawn) [triticonazole], the “Classification (dissociation)” value in series [1] is given as “No dissociation”. Further, the “Log Know (P Log)” value in series [2] is 3.29.

As to `CC(C)(C)C(O)/C(=C\c1ccc(Cl)cc1)n1cncn1` (stereo not drawn) [uniconazole], the Solubility in water in series [4] was 8.41 mg/L or PPM. Also, in series [1], the “Classification (dissociation)” value is listed as “Very weak acid” and the “Dissociation Constant - Pka” value is 13.07. Besides, in series [2], the “Log Know (P Log)” value is recorded as 3.84.
